From patent US20240199587A1, “HETEROCYCLIC COMPOUNDS” (Hoffmann-La Roche Inc., priority 2021, published 2024) come the findings set out here.

This assay concerns the target T1, MAGL (Homo sapiens, UniProt Q99685).
T1 sequence (Q99685 1-303): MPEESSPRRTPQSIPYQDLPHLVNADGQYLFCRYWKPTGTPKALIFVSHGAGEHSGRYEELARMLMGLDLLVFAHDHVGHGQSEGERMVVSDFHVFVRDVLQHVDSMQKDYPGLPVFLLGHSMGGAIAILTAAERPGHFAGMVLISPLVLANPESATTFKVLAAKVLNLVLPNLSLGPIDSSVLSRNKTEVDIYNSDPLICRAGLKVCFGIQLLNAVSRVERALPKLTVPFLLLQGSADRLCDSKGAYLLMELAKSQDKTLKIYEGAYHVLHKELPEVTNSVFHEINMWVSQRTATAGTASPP
In words: 2-AG assay (MAGL inhibitory activity, hydrolysis of 2-arachidonoylglycerol to arachidonic acid followed by mass spectrometry). Particulars: 8 μM 2-arachidonoylglycerol, 15 min pre-incubation, 30 min incubation at RT, RapidFire MS readout. Type of assay: biochemical. The source says: Compounds of formula (I) were profiled for MAGL inhibitory activity by determining the enzymatic activity by following the hydrolysis of the natural substrate 2-arachidonoylglycerol (2-AG) resulting in arachidonic acid, which can be followed by mass spectrometry. This assay is hereinafter abbreviated “2-AG assay”.
Compounds of formula (I) were profiled for MAGL inhibitory activity by determining the enzymatic activity by following the hydrolysis of the natural substrate 2-arachidonoylglycerol (2-AG) resulting in arachidonic acid, which can be followed by mass spectrometry. This assay is hereinafter abbreviated “2-AG assay”. The 2-AG assay was carried out in 384 well polypropylene assay plates. […] Compound dilutions were added to MAGL protein in assay buffer (50 mM TRIS, 1 mM EDTA, 0.01% (v/v) Tween-20, 2.5% (v/v) DMSO). After shaking, the plate was incubated for 15 min at RT. To start the reaction, 2-arachidonoylglycerol in assay buffer was added. The final concentrations in the assay was […] for MAGL protein and 8 μM 2-arachidonoylglyerol. After shaking and 30 min incubation at RT, the reaction was quenched by the addition of two assay volumes of acetonitrile containing 4 μM of d8-arachidonic acid. The amount of arachidonic acid formed was traced by an online SPE system (Agilent Rapidfire) coupled to a triple quadrupole mass spectrometer. A C18 SPE cartridge (Agilent G9205A) was used in an acetonitrile/water liquid setup. The mass spectrometer was operated in negative electrospray mode following the mass transitions 303.1→259.1 for arachidonic acid and 311.1→267.0 for d8-arachidonic acid. The activity of the compounds was calculated based on the ratio of intensities [arachidonic acid/d8-arachidonic acid].
By IC50 is commonly meant the point on the concentration scale where inhibition reaches its midpoint. Read a low IC50 as higher potency. For the molecule `CC(C)(C)c1nc(-c2ccc(C(=O)N3CC4(CC(n5ccc(C(F)(F)F)n5)C4)C3)cc2)no1` [Example 5, [4-(5-tert-butyl-1,2,4-oxadiazol-3-yl)phenyl]-[6-[3-(trifluoromethyl)pyrazol-1-yl]-2-azaspiro[3.3]heptan-2-yl]methanone], the IC50 was determined as 85.9 nM. `CC(C)(C)c1nc(-c2ccc(C(=O)N3CC4(CC(n5cc(Cl)cn5)C4)C3)cc2)no1` [Example 6, [4-(5-tert-butyl-1,2,4-oxadiazol-3-yl)phenyl]-[6-(4-chloropyrazol-1-yl)-2-azaspiro[3.3]heptan-2-yl]methanone] displayed an IC50 of 191 nM. The molecule `CC(C)(C)c1nc(-c2ccc(C(=O)N3CC4(CC(n5cc(C6CC6)cn5)C4)C3)cc2)no1` [Example 7, [4-(5-tert-butyl-1,2,4-oxadiazol-3-yl)phenyl]-[6-(4-cyclopropylpyrazol-1-yl)-2-azaspiro[3.3]heptan-2-yl]methanone] gave an IC50 of 215 nM. `CC(C)(C)c1nc(-c2ccc(C(=O)N3CC4(CC(n5ccc(C#N)n5)C4)C3)cc2)no1` [Example 8, 1-[2-[4-(5-tert-butyl-1,2,4-oxadiazol-3-yl)benzoyl]-2-azaspiro[3.3]heptan-6-yl]pyrazole-3-carbonitrile]: the IC50 is 485 nM. Against the preceding molecule, the IC50 is about 2.3-fold higher. As for `CC(C)(C)c1nc(-c2ccc(C(=O)N3CC4(CC(n5ccc(C6(C)CC6)n5)C4)C3)cc2)no1` [Example 9, [4-(5-tert-butyl-1,2,4-oxadiazol-3-yl)phenyl]-[6-[3-(1-methylcyclopropyl)pyrazol-1-yl]-2-azaspiro[3.3]heptan-2-yl]methanone], the IC50 was found to be 613 nM. As for `CC(C)(C)c1nc(-c2ccc(C(=O)N3CC4(CC(n5nccc5C5(C)CC5)C4)C3)cc2)no1` [Example 10, [4-(5-tert-butyl-1,2,4-oxadiazol-3-yl)phenyl]-[6-[5-(1-methylcyclopropyl)pyrazol-1-yl]-2-azaspiro[3.3]heptan-2-yl]methanone], the midpoint of inhibition, the IC50, lay at 33.1 nM. Take `COc1cnn(C2CC3(C2)CN(C(=O)c2ccc(-c4noc(C(C)(C)C)n4)cc2)C3)c1` [Example 11, [4-(5-tert-butyl-1,2,4-oxadiazol-3-yl)phenyl]-[6-(4-methoxypyrazol-1-yl)-2-azaspiro[3.3]heptan-2-yl]methanone]: the IC50 stood at 1290 nM. Regarding `CC(C)(C)c1nc(-c2ccc(C(=O)N3CC4(CC(n5cc6c(n5)CCCC6)C4)C3)cc2)no1` [Example 12, [4-(5-tert-butyl-1,2,4-oxadiazol-3-yl)phenyl]-[6-(4,5,6,7-tetrahydroindazol-2-yl)-2-azaspiro[3.3]heptan-2-yl]methanone], it took 36.7 nM to reach half-maximal inhibition (IC50). Turning to `COc1ccn(C2CC3(C2)CN(C(=O)c2ccc(-c4noc(C(C)(C)C)n4)cc2)C3)n1` [Example 13, [4-(5-tert-butyl-1,2,4-oxadiazol-3-yl)phenyl]-[6-(3-methoxypyrazol-1-yl)-2-azaspiro[3.3]heptan-2-yl]methanone], inhibition was half-maximal at 152 nM (IC50). The molecule `CC(C)(C)c1nc(-c2ccc(C(=O)N3CC4(CC(n5cc6c(n5)CCOC6)C4)C3)cc2)no1` [Example 14, [4-(5-tert-butyl-1,2,4-oxadiazol-3-yl)phenyl]-[6-(6,7-dihydro-4H-pyrano[4,3-c]pyrazol-2-yl)-2-azaspiro[3.3]heptan-2-yl]methanone] returned an IC50 of 197 nM.

In the case of `CC(C)(C)c1nc(-c2ccc(C(=O)N3CC4(CC(n5cc(F)cn5)C4)C3)cc2)no1` [Example 15, [4-(5-tert-butyl-1,2,4-oxadiazol-3-yl)phenyl]-[6-(4-fluoropyrazol-1-yl)-2-azaspiro[3.3]heptan-2-yl]methanone], the IC50 amounted to 2670 nM.

With `CC(C)(C)c1nc(-c2ccc(C(=O)N3CC4(CC(n5nccc5C(F)(F)F)C4)C3)cc2)no1` [Example 16, [4-(5-tert-buty1-1,2,4-oxadiazol-3-yl)phenyl]-[6-[5-(trifluoromethyl)pyrazol-1-yl]-2-azaspiro[3.3]heptan-2-yl]methanone], the IC50 is 2810 nM. Molecule `CC(C)(C)c1nc(-c2ccc(C(=O)N3CC4(CC(n5ncnc5C5CC5)C4)C3)cc2)no1` [Example 17, [4-(5-tert-butyl-1,2,4-oxadiazol-3-yl)phenyl]-[6-(5-cyclopropyl-1,2,4-triazol-1-yl)-2-azaspiro[3.3]heptan-2-yl]methanone] had an IC50 of 3360 nM. Regarding `CC(C)(C)c1nc(-c2ccc(C(=O)N3CC4(CC(n5ncc6c5CCOC6)C4)C3)cc2)no1` [Example 18, [4-(5-tert-butyl-1,2,4-oxadiazol-3-yl)phenyl]-[6-(6,7-dihydro-4H-pyrano[4,3-c]pyrazol-1-yl)-2-azaspiro[3.3]heptan-2-yl]methanone], it took 3730 nM to reach half-maximal inhibition (IC50). As to `COc1ccnn1C1CC2(C1)CN(C(=O)c1ccc(-c3noc(C(C)(C)C)n3)cc1)C2` [Example 19, [4-(5-tert-butyl-1,2,4-oxadiazol-3-yl)phenyl]-[6-(5-methoxypyrazol-1-yl)-2-azaspiro[3.3]heptan-2-yl]methanone], inhibition was half-maximal at 4170 nM (IC50). `CC(C)(C)c1nc(-c2ccc(C(=O)N3CC4(CC(n5cnc(C#N)n5)C4)C3)cc2)no1` [Example 20, 1-[2-[4-(5-tert-butyl-1,2,4-oxadiazol-3-yl)benzoyl]-2-azaspiro[3.3]heptan-6-yl]-1,2,4-triazole-3-carbonitrile] registered an IC50 of 82 nM. This IC50 is about 51-fold lower than that of the molecule before. Consider `CC(C)(C)c1nc(-c2ccc(C(=O)N3CC4(CC(n5ncc6c5CCCC6)C4)C3)cc2)no1` [Example 22, [4-(5-tert-butyl-1,2,4-oxadiazol-3-yl)phenyl]-[6-(4,5,6,7-tetrahydroindazol-1-yl)-2-azaspiro[3.3]heptan-2-yl]methanone], for which the IC50 worked out at 451 nM. `Cc1ccc(C2CC3(C2)CN(C(=O)c2ccc(-c4noc(C(C)(C)C)n4)cc2)C3)cn1` [Example 23, [4-(5-tert-butyl-1,2,4-oxadiazol-3-yl)phenyl]−[6-(6-methyl-3-pyridyl)-2-azaspiro[3.3]heptan-2-yl]methanone] had an IC50 of 229 nM.

With `Cc1cc(C(=O)N2CC3(CC(n4cnc(C5CC5)n4)C3)C2)cnc1OCC1(C(F)(F)F)CC1` [Example 24, [6-(3-cyclopropyl-1,2,4-triazol-1-yl)-2-azaspiro[3.3]heptan-2-yl]-[5-methyl-6-[[1-(trifluoromethyl)cyclo-propyl]methoxy]-3-pyridyl]methanone], the IC50 stood at 7.7 nM. The figure for `Cc1cc(C(=O)N2CC3(CC(n4cnc(C5CC5)c4)C3)C2)cnc1OCC1(C(F)(F)F)CC1` [Example 25, [6-(4-cyclopropylimidazol-1-yl)-2-azaspiro[3.3]heptan-2-yl]-[5-methyl-6-[[1-(trifluoromethyl)cyclo-propyl]methoxy]-3-pyridyl]methanone] is 12.2 nM; for `O=C(c1cnc(OCC2(C(F)(F)F)CC2)c(F)c1)N1CC2(CC(n3cnc(C4CC4)n3)C2)C1` [Example 26, [6-(3-cyclopropyl-1,2,4-triazol-1-yl)-2-azaspiro[3.3]heptan-2-yl]−[5-fluoro-6-[[1-(trifluoromethyl)cyclopropyl]methoxy]-3-pyridyl]methanone] it is 19.8 nM; for `Cc1nc(C(=O)N2CC3(CC(n4cnc(C5CC5)n4)C3)C2)cnc1OCC1(C(F)(F)F)CC1` [Example 27, [6-(3-cyclopropyl-1,2,4-triazol-1-yl)-2-azaspiro[3.3]heptan-2-yl]-[6-methyl-5-[[1-(trifluoromethyl)cyclo-propyl]methoxy]pyrazin-2-yl]methanone] it is 26.5 nM. `O=C(c1cnc(OCC2(C(F)(F)F)CC2)c(F)c1)N1CC2(CC(n3cnc(C4CC4)c3)C2)C1` [Example 28, [6-(4-cyclopropylimidazol-1-yl)-2-azaspiro[3.3]heptan-2-yl]-[5-fluoro-6-[[1-(trifluoromethyl)cyclo-propyl]methoxy]-3-pyridyl]methanone] displayed an IC50 of 50 nM. Against the preceding molecule, the IC50 is about 1.9-fold higher.

`CC1(COc2ncc(C(=O)N3CC4(CC(n5cnc(C6CC6)n5)C4)C3)cc2F)CC1` [Example 29, [6-(3-cyclopropyl-1,2,4-triazol-1-yl)-2-azaspiro[3.3]heptan-2-yl]-[5-fluoro-6-[(1-methylcyclopropyl)methoxy]-3-pyridyl]methanone] gave an IC50 of 52.2 nM. Molecule `CC1(COc2ncc(C(=O)N3CC4(CC(n5cnc(C6CC6)c5)C4)C3)cc2F)CC1` [Example 30] registered an IC50 of 108 nM.

The molecule `O=C(c1cnc(OCC2(C(F)(F)F)CC2)nc1)N1CC2(CC(n3cnc(C4CC4)n3)C2)C1` [Example 31, [6-(3-cyclopropyl-1,2,4-triazol-1-yl)-2-azaspiro[3.3]heptan-2-yl]-[2-[[1-(trifluoromethyl)cyclo-propyl]methoxy]pyrimidin-5-yl] methanone] gave an IC50 of 353 nM.
